Reference: patent US9562035B2, “Benzamide derivative useful as FASN inhibitors for the treatment of cancer” (Janssen Pharmaceutica NV, priority 2013, dated 2017)

Legend:
[1] = molecular target: T1, hFASN enzyme (full length) (Homo sapiens, UniProt P49327); assay: Fatty Acid Synthase (FASN) Inhibition Scintillation Proximity Assay; format: biochemical; conditions: for IC50: mean where tested more than once, ~ = standard error of pIC50 larger than 0.5; for inhibition at 10 µM: read-out: FASN % Effect @1E−05M
T1 construct: 10 μL hFASN enzyme (full length, 300 ng, purified in house); made in house
T1 sequence (P49327 whole entry): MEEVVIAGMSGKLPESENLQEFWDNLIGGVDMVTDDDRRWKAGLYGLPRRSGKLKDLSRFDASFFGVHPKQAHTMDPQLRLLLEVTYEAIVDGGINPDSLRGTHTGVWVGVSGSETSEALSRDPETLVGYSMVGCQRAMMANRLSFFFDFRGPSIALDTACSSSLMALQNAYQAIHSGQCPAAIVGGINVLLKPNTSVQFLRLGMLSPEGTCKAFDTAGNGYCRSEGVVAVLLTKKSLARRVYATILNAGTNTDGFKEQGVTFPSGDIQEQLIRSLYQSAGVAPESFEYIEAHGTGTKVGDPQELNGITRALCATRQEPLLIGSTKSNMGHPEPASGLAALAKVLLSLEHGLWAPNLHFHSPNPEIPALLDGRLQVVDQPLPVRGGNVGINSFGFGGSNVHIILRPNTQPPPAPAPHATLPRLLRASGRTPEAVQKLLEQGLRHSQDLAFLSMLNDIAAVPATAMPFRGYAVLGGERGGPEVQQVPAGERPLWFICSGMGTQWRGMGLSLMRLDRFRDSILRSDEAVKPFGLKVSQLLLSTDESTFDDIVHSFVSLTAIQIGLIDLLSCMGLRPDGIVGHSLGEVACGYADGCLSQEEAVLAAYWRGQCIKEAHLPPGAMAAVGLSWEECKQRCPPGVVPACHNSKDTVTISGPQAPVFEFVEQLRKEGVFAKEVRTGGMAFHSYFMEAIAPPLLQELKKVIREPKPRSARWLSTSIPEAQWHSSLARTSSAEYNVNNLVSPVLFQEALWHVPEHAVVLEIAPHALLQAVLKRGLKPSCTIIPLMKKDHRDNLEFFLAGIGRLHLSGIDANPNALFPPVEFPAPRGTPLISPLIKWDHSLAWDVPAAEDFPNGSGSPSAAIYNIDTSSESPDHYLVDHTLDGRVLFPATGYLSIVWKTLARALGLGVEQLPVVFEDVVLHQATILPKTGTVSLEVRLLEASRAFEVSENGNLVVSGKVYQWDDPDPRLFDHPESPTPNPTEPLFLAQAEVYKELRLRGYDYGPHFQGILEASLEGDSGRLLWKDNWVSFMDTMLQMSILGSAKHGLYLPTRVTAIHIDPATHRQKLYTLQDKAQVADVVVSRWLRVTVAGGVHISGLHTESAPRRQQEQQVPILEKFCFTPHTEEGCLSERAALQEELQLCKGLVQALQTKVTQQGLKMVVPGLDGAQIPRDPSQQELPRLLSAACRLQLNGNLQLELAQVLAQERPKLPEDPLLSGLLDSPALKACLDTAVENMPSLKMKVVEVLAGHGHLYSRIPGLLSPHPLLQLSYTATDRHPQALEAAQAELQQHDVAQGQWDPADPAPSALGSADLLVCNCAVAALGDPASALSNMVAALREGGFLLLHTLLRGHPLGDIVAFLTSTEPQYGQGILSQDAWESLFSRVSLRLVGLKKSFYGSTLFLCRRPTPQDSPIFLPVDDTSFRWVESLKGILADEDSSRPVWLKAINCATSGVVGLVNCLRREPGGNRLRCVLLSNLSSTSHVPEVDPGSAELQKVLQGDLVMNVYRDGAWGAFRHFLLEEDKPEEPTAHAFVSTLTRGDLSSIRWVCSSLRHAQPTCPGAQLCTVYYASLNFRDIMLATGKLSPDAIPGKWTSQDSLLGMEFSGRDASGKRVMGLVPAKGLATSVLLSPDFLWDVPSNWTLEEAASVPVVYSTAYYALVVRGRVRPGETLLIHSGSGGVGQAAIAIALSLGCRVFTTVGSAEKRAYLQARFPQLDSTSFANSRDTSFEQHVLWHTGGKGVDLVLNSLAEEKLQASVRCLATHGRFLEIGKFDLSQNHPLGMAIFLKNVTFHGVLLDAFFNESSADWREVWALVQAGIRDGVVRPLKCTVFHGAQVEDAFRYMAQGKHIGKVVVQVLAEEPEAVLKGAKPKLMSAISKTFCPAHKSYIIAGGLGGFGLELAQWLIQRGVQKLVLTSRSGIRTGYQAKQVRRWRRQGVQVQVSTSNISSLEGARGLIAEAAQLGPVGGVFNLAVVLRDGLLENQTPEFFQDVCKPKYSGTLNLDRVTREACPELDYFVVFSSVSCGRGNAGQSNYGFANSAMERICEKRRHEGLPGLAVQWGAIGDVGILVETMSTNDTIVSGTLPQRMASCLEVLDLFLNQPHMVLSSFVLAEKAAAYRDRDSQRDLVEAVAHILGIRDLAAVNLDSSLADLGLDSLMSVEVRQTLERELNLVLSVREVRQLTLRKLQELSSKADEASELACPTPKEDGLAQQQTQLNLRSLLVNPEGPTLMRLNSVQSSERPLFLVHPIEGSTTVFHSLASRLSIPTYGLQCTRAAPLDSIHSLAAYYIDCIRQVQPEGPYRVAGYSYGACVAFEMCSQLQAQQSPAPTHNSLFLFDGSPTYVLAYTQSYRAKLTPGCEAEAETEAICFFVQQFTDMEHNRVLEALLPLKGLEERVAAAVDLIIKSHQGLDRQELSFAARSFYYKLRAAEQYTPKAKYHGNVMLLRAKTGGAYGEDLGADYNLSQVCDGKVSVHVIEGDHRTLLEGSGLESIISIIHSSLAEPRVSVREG
Summary of the method: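 Eight compound concentrations (0.01–30 μM) tested in pH 7.5 phosphate buffer with DTT; human full-length enzyme converted [3H]-acetyl-CoA plus malonyl-CoA, with NADPH, over 60 min at room temperature. Hydrophobic [3H]-palmitate detected by bead proximity scintillation imaging; control-normalised data fitted for IC50/pIC50.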

[2] = molecular target: T2, FASN Keto-reductase Domain (Homo sapiens, UniProt P49327); assay: Fatty Acid Synthase Keto-Reductase Domain (FASN KR) Inhibition; format: biochemical; conditions: mean where tested more than once; read-out: FASN K-R Domain pIC50 (converted)
T2 construct: 10 μL hFASN enzyme (full length, 300 ng, purified in house) and 360 μM NADPH; made in house
T2 sequence (P49327 whole entry, the tested form may be a part): as the sequence (P49327 whole entry) above
Summary of the method: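 Keto-reductase activity followed as NADPH consumption (A340 drop between 0 and 20 min, room temperature) using in-house full-length hFASN, 360 μM NADPH and ethyl acetoacetate substrate (180 mM stock), pH 7.5 phosphate buffer.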

A2780 ovarian cells [3] = assay: A2780 Ovarian Cell Proliferation Assay in Lipid Reduced Medium, without Palmitate; format: cell-based; conditions: Homo sapiens, A2780; lipid reduced medium, without palmitate, 96 h, MTT; read-out: Proliferation A2780 w/o Palmitate pIC50 (converted)
Summary of the method: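 A2780 cells were seeded in 10% FCS medium and switched next day to 10% lipid-reduced serum without palmitate. Compounds at 0.01–30 μM were added with 0.2% DMSO, 0.2% fatty-acid-free BSA and 0.25% ethanol final. After 96 h, MTT absorbance at 544 nm was normalized to plate controls, and IC50/pIC50 came from a 4-parameter logistic fit.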

A2780 ovarian cells [4] = assay: A2780 Ovarian Cell Proliferation Assay in Lipid Reduced Medium, with Palmitate (control); format: cell-based; conditions: Homo sapiens, A2780; lipid reduced medium, 25 μM palmitate, 96 h, MTT; read-out: Proliferation A2780 with Palmitate pIC50 (converted)
Summary of the method: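 Read-out was MTT absorbance at 544 nm after 96 h at 37 °C. Cells grown overnight in RPMI1640/10% FCS were moved to 10% lipid-reduced serum with compound plus palmitate (final 25 μM, 0.2% fatty-acid-free BSA, 0.2% DMSO). IC50 came from least-squares curve fitting, expressed as −log(IC50).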

Cc1ccc(C(=O)N2CCC(c3ccc(-c4cnn(C)c4)cc3)CC2)cc1NC(=O)c1cnccc1Cl [Compound 114, 4-chloro-N-(2-methyl-5-(4-(4-(1-methyl-1H-pyrazol-4-yl)phenyl)piperidine-1-carbonyl)phenyl)nicotinamide]
IC50 [1]: 0.316 µM | inhibition at 10 µM [1]: 92% | IC50 [2]: 0.631 µM | IC50 (A2780 ovarian cells [3]): 0.537 µM | IC50 (A2780 ovarian cells [4]): > 10 µM

Cc1ccc(C(=O)N2CCC(c3ccc(-c4cnn(C)c4)cc3)CC2)cc1NC(=O)c1ccc(F)cc1 [Compound 116, 4-fluoro-N-(2-methyl-5-(4-(4-(1-methyl-1H-pyrazol-4-yl)phenyl)piperidine-1-carbonyl)phenyl)benzamide]
IC50 [1]: 0.0437 µM | inhibition at 10 µM [1]: 101% | IC50 [2]: 0.0933 µM | IC50 (A2780 ovarian cells [3]): 0.126 µM | IC50 (A2780 ovarian cells [4]): > 10 µM

Cc1ccc(C(=O)N2CCC(c3ccc(-c4cnn(C)c4)cc3)CC2)cc1NC(=O)c1ccccc1F [Compound 117, 2-fluoro-N-(2-methyl-5-(4-(4-(1-methyl-1H-pyrazol-4-yl)phenyl)piperidine-1-carbonyl)phenyl)benzamide]
IC50 [1]: 0.0331 µM | inhibition at 10 µM [1]: 99% | IC50 [2]: 0.0832 µM | IC50 (A2780 ovarian cells [3]): 0.138 µM | IC50 (A2780 ovarian cells [4]): > 10 µM

Cc1ccc(C(=O)N2CCC(c3ccc(-c4cnn(C)c4)cc3)CC2)cc1NC(=O)c1ccc(N(C)C)cn1 [Compound 119, 5-(dimethylamino)-N-(2-methyl-5-(4-(4-(1-methyl-1H-pyrazol-4-yl)phenyl)piperidine-1-carbonyl)phenyl)picolinamide]
IC50 [1]: 0.0646 µM | inhibition at 10 µM [1]: 98% | IC50 [2]: 0.141 µM | IC50 (A2780 ovarian cells [3]): 0.191 µM | IC50 (A2780 ovarian cells [4]): 6.46 µM

Cc1ccc(C(=O)N2CCC(c3ccc(-c4cnn(C)c4)cc3)CC2)cc1NC(=O)c1ccc(F)c(F)c1F [Compound 120, 2,3,4-trifluoro-N-(2-methyl-5-(4-(4-(1-methyl-1H-pyrazol-4-yl)phenyl)piperidine-1-carbonyl)phenyl)benzamide]
IC50 [1]: 0.0447 µM | inhibition at 10 µM [1]: 95% | IC50 [2]: 0.0977 µM | IC50 (A2780 ovarian cells [3]): 0.145 µM | IC50 (A2780 ovarian cells [4]): ~10 µM

Cc1ccc(C(=O)N2CCC(c3ccc(-c4cnn(C)c4)cc3)CC2)cc1NC(=O)c1c(Cl)cccc1Cl [Compound 121, 2,6-dichloro-N-(2-methyl-5-(4-(4-(1-methyl-1H-pyrazol-4-yl)phenyl)piperidine-1-carbonyl)phenyl)benzamide]
IC50 [1]: 0.38 µM | inhibition at 10 µM [1]: 87% | IC50 [2]: 0.794 µM | IC50 (A2780 ovarian cells [3]): 1 µM | IC50 (A2780 ovarian cells [4]): 8.51 µM

Cc1ccc(C(=O)N2CCC(c3ccc(-c4cnn(C)c4)cc3)CC2)cc1NC(=O)c1ccc(Cl)cc1Cl [Compound 122, 2,4-dichloro-N-(2-methyl-5-(4-(4-(1-methyl-1H-pyrazol-4-yl)phenyl)piperidine-1-carbonyl)phenyl)benzamide]
IC50 [1]: 0.0186 µM | inhibition at 10 µM [1]: 101% | IC50 [2]: 0.0759 µM | IC50 (A2780 ovarian cells [3]): 0.117 µM | IC50 (A2780 ovarian cells [4]): > 10 µM

Cc1ccc(C(=O)N2CCC(c3ccc(-c4cnn(C)c4)cc3)CC2)cc1NC(=O)c1ccc(Cl)c(Cl)c1 [Compound 123, 3,4-dichloro-N-(2-methyl-5-(4-(4-(1-methyl-1H-pyrazol-4-yl)phenyl)piperidine-1-carbonyl)phenyl)benzamide]
IC50 [1]: 0.0537 µM | inhibition at 10 µM [1]: 97% | IC50 [2]: 0.0776 µM | IC50 (A2780 ovarian cells [3]): 0.162 µM | IC50 (A2780 ovarian cells [4]): 6.76 µM

Cc1ccc(C(=O)N2CCC(c3ccc(-c4cnn(C)c4)cc3)CC2)cc1NC(=O)C1CCN(Cc2ccccc2)CC1 [Compound 124, 1-benzyl-N-(2-methyl-5-(4-(4-(1-methyl-1H-pyrazol-4-yl)phenyl)piperidine-1-carbonyl)phenyl)piperidine-4-carboxamide]
IC50 [1]: 0.0257 µM | inhibition at 10 µM [1]: 105% | IC50 [2]: 0.0813 µM | IC50 (A2780 ovarian cells [3]): 0.0339 µM | IC50 (A2780 ovarian cells [4]): 5.37 µM

Cc1ccc(C(=O)N2CC(c3ccc(-c4cnn(C)c4)cc3)C2)cc1NC(=O)C1CCCCC1 [Compound 125, N-(2-methyl-5-(3-(4-(1-methyl-1H-pyrazol-4-yl)phenyl)azetidine-1-carbonyl)phenyl)cyclohexanecarboxamide]
IC50 [1]: 0.0447 µM | inhibition at 10 µM [1]: 104% | IC50 [2]: 0.0794 µM | IC50 (A2780 ovarian cells [3]): 0.132 µM | IC50 (A2780 ovarian cells [4]): 4.79 µM

CSc1ccc(C(=O)Nc2cc(C(=O)N3CCC(c4ccc(-c5cnn(C)c5)cc4)CC3)ccc2C)cc1 [Compound 126, N-(2-methyl-5-(4-(4-(1-methyl-1H-pyrazol-4-yl)phenyl)piperidine-1-carbonyl)phenyl)-4-(methylthio)benzamide]
IC50 [1]: 0.0302 µM | inhibition at 10 µM [1]: 110% | IC50 [2]: 0.0324 µM | IC50 (A2780 ovarian cells [3]): 0.0263 µM | IC50 (A2780 ovarian cells [4]): > 10 µM

Cc1ccc(F)c(C(=O)Nc2cc(C(=O)N3CCC(c4ccc(-c5cnn(C)c5)cc4)CC3)ccc2C)c1 [Compound 127, 2-fluoro-5-methyl-N-(2-methyl-5-(4-(4-(1-methyl-1H-pyrazol-4-yl)phenyl)piperidine-1-carbonyl)phenyl)benzamide]
IC50 [1]: 0.182 µM | inhibition at 10 µM [1]: 98% | IC50 [2]: 0.389 µM | IC50 (A2780 ovarian cells [3]): 0.562 µM | IC50 (A2780 ovarian cells [4]): 4.47 µM

COc1cc(Cl)cc(C(=O)Nc2cc(C(=O)N3CCC(c4ccc(-c5cnn(C)c5)cc4)CC3)ccc2C)c1 [Compound 128, 3-chloro-5-methoxy-N-(2-methyl-5-(4-(4-(1-methyl-1H-pyrazol-4-yl)phenyl)piperidine-1-carbonyl)phenyl)benzamide]
IC50 [1]: 0.257 µM | inhibition at 10 µM [1]: 84% | IC50 [2]: 0.288 µM | IC50 (A2780 ovarian cells [3]): ~0.417 µM | IC50 (A2780 ovarian cells [4]): 6.17 µM

Cc1ccc(C(=O)N2CCC(c3ccc(-c4cnn(C)c4)cc3)CC2)cc1NC(=O)c1ccc(C#N)cc1F [Compound 129, 4-cyano-2-fluoro-N-(2-methyl-5-(4-(4-(1-methyl-1H-pyrazol-4-yl)phenyl)piperidine-1-carbonyl)phenyl)benzamide]
IC50 [1]: 0.0229 µM | inhibition at 10 µM [1]: 104% | IC50 [2]: 0.0347 µM | IC50 (A2780 ovarian cells [3]): 0.0214 µM | IC50 (A2780 ovarian cells [4]): > 10 µM

Cc1ccc(C(=O)N2CCC(c3ccc(-c4cnn(C)c4)cc3)CC2)cc1NC(=O)c1cccs1 [Compound 130, N-(2-methyl-5-(4-(4-(1-methyl-1H-pyrazol-4-yl)phenyl)piperidine-1-carbonyl)phenyl)thiophene-2-carboxamide]
IC50 [1]: 0.0479 µM | inhibition at 10 µM [1]: 108% | IC50 [2]: 0.126 µM | IC50 (A2780 ovarian cells [3]): ~0.123 µM | IC50 (A2780 ovarian cells [4]): > 10 µM

Cc1ccc(C(=O)N2CCC(c3ccc(-c4cnn(C)c4)cc3)CC2)cc1NC(=O)c1ccc(F)cc1F [Compound 131, 2,4-difluoro-N-(2-methyl-5-(4-(4-(1-methyl-1H-pyrazol-4-yl)phenyl)piperidine-1-carbonyl)phenyl)benzamide]
IC50 [1]: 0.0513 µM | inhibition at 10 µM [1]: 109% | IC50 [2]: 0.107 µM | IC50 (A2780 ovarian cells [3]): 0.126 µM | IC50 (A2780 ovarian cells [4]): > 6.17 µM

Cc1ccc(C(=O)N2CCC(c3ccc(-c4cnn(C)c4)cc3)CC2)cc1NC(=O)c1ccccc1C(F)(F)F [Compound 132, N-(2-methyl-5-(4-(4-(1-methyl-1H-pyrazol-4-yl)phenyl)piperidine-1-carbonyl)phenyl)-2-(trifluoromethyl)benzamide]
IC50 [1]: 0.12 µM | inhibition at 10 µM [1]: 97% | IC50 [2]: 0.204 µM | IC50 (A2780 ovarian cells [3]): 0.339 µM | IC50 (A2780 ovarian cells [4]): > 10 µM

Cc1ccc(C(=O)N2CCC(c3ccc(-c4cnn(C)c4)cc3)CC2)cc1NC(=O)c1ccc2c(c1)OCO2 [Compound 133, N-(2-methyl-5-(4-(4-(1-methyl-1H-pyrazol-4-yl)phenyl)piperidine-1-carbonyl)phenyl)benzo[d][1,3]dioxole-5-carboxamide]
IC50 [1]: 0.0372 µM | inhibition at 10 µM [1]: 96% | IC50 [2]: 0.0741 µM | IC50 (A2780 ovarian cells [3]): 0.0912 µM | IC50 (A2780 ovarian cells [4]): > 10 µM

Cc1ccc(C(=O)N2CCC(c3ccc(-c4cnn(C)c4)cc3)CC2)cc1NC(=O)c1ccc(NC2CCC2)nc1 [Compound 134, 6-(cyclobutylamino)-N-(2-methyl-5-(4-(4-(1-methyl-1H-pyrazol-4-yl)phenyl)piperidine-1-carbonyl)phenyl)nicotinamide]
IC50 [1]: 0.0575 µM | inhibition at 10 µM [1]: 111% | IC50 [2]: 0.0525 µM | IC50 (A2780 ovarian cells [3]): ~0.038 µM | IC50 (A2780 ovarian cells [4]): > 10 µM

COc1ccc(C(=O)Nc2cc(C(=O)N3CCC(c4ccc(-c5cnn(C)c5)cc4)CC3)ccc2C)cc1O [Compound 135, 3-hydroxy-4-methoxy-N-(2-methyl-5-(4-(4-(1-methyl-1H-pyrazol-4-yl)phenyl)piperidine-1-carbonyl)phenyl)benzamide]
IC50 [1]: 0.0162 µM | inhibition at 10 µM [1]: 107% | IC50 [2]: 0.055 µM | IC50 (A2780 ovarian cells [3]): 0.0871 µM | IC50 (A2780 ovarian cells [4]): > 10 µM
